Assay results taken from PubChem BioAssay (NCI).
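48-hour exposure; five concentrations; linearly interpolated endpoints. TGI denotes the concentration required for complete inhibition of growth.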

Columns and labels:
Experiment in all cases: NCI anticancer screen, dose series, 48 h
[1] = tested on: 786-0 renal
[2] = tested on: A498 renal
[3] = tested on: A549 NSCLC
[4] = tested on: ACHN renal
[5] = tested on: CAKI-1 renal
[6] = tested on: CCRF-CEM leukemia
[7] = tested on: COLO 205 colon
[8] = tested on: DLD-1 colon
[9] = tested on: DMS 114 small cell lung
[10] = tested on: EKVX NSCLC
[11] = tested on: HCC-2998 colon
[12] = tested on: HCT-116 colon
[13] = tested on: HCT-15 colon
[14] = tested on: HL-60(TB) leukemia
[15] = tested on: HOP-62 NSCLC
[16] = tested on: HOP-92 NSCLC
[17] = tested on: IGROV1 ovarian
[18] = tested on: K-562 leukemia
[19] = tested on: KM20L2 colon
[20] = tested on: LOX IMVI melanoma
[21] = tested on: LXFL 529 NSCLC
[22] = tested on: M14 melanoma
[23] = tested on: M19-MEL melanoma
[24] = tested on: MALME-3M melanoma
[25] = tested on: MOLT-4 leukemia
[26] = tested on: NCI-H226 lung
[27] = tested on: NCI-H23 lung
[28] = tested on: NCI-H460 lung
[29] = tested on: NCI-H522 lung
[30] = tested on: OVCAR-4 ovarian
[31] = tested on: OVCAR-5 ovarian
[32] = tested on: OVCAR-8 ovarian
[33] = tested on: RPMI-8226 leukemia
[34] = tested on: RXF 393 renal
[35] = tested on: RXF-631 renal
[36] = tested on: SF-268 CNS
[37] = tested on: SF-539 CNS
[38] = tested on: SK-MEL-2 melanoma
[39] = tested on: SK-MEL-28 melanoma
[40] = tested on: SK-MEL-5 melanoma
[41] = tested on: SK-OV-3 ovarian
[42] = tested on: SN12C renal
[43] = tested on: SNB-19 CNS
[44] = tested on: SNB-75 CNS
[45] = tested on: SNB-78 CNS
[46] = tested on: SW-620 colon
[47] = tested on: TK-10 renal
[48] = tested on: U251 CNS
[49] = tested on: UACC-62 melanoma
[50] = tested on: UO-31 renal
[51] = tested on: XF 498 CNS
[52] = tested on: DMS 273 small cell lung
[53] = tested on: HOP-18 NSCLC
[54] = tested on: HT29 colon
[55] = tested on: KM12 colon
[56] = tested on: OVCAR-3 ovarian
[57] = tested on: SF-295 CNS
[58] = tested on: UACC-257 melanoma
[59] = tested on: BT-549 breast
[60] = tested on: DU-145 prostate
[61] = tested on: HS 578T breast
[62] = tested on: MCF7 breast
[63] = tested on: MDA-MB-231 breast
[64] = tested on: MDA-MB-435
[65] = tested on: MDA-N
[66] = tested on: NCI/ADR-RES ovarian
[67] = tested on: PC-3 prostate
[68] = tested on: SR leukemia
[69] = tested on: T-47D breast

SMILES: O=C(c1ccccc1)C(c1ccccc1)C1(O)C(=O)Nc2ccc([N+](=O)[O-])cc21 (stereo not drawn)
- TGI [1]: > 100 µM
- TGI [2]: > 100 µM
- TGI [3]: > 100 µM
- TGI [4]: > 100 µM
- TGI [5]: > 100 µM
- TGI [6]: > 100 µM
- TGI [7]: > 100 µM
- TGI [8]: > 100 µM
- TGI [9]: 79.3 µM
- TGI [10]: > 100 µM
- TGI [11]: > 100 µM
- TGI [12]: > 100 µM
- TGI [13]: > 100 µM
- TGI [14]: > 100 µM
- TGI [15]: > 100 µM
- TGI [16]: > 100 µM
- TGI [17]: > 100 µM
- TGI [18]: > 100 µM
- TGI [19]: > 100 µM
- TGI [20]: > 100 µM
- TGI [21]: > 100 µM
- TGI [22]: > 100 µM
- TGI [23]: 72.2 µM
- TGI [24]: > 100 µM
- TGI [25]: > 100 µM
- TGI [26]: > 100 µM
- TGI [27]: > 100 µM
- TGI [28]: > 100 µM
- TGI [29]: > 100 µM
- TGI [30]: > 100 µM
- TGI [31]: > 100 µM
- TGI [32]: > 100 µM
- TGI [33]: > 100 µM
- TGI [34]: > 100 µM
- TGI [35]: > 100 µM
- TGI [36]: > 100 µM
- TGI [37]: > 100 µM
- TGI [38]: > 100 µM
- TGI [39]: > 100 µM
- TGI [40]: 57.7 µM
- TGI [41]: 79.7 µM
- TGI [42]: > 100 µM
- TGI [43]: > 100 µM
- TGI [44]: > 100 µM
- TGI [45]: > 100 µM
- TGI [46]: > 100 µM
- TGI [47]: > 100 µM
- TGI [48]: > 100 µM
- TGI [49]: > 100 µM
- TGI [50]: > 100 µM
- TGI [51]: > 100 µM

SMILES: COc1ccc(Cc2c(=O)[nH]nc3ccccc23)cc1
- TGI [1]: > 100 µM
- TGI [2]: > 100 µM
- TGI [3]: > 100 µM
- TGI [4]: > 100 µM
- TGI [5]: > 100 µM
- TGI [6]: > 100 µM
- TGI [7]: > 100 µM
- TGI [8]: > 100 µM
- TGI [9]: > 100 µM
- TGI [52]: > 100 µM
- TGI [10]: > 100 µM
- TGI [11]: > 100 µM
- TGI [12]: > 100 µM
- TGI [13]: > 100 µM
- TGI [53]: > 100 µM
- TGI [15]: > 100 µM
- TGI [16]: > 100 µM
- TGI [54]: > 100 µM
- TGI [17]: > 100 µM
- TGI [18]: > 100 µM
- TGI [55]: > 100 µM
- TGI [19]: > 100 µM
- TGI [20]: > 100 µM
- TGI [22]: > 100 µM
- TGI [23]: > 100 µM
- TGI [24]: > 100 µM
- TGI [25]: > 100 µM
- TGI [26]: > 100 µM
- TGI [27]: > 100 µM
- TGI [28]: > 100 µM
- TGI [56]: > 100 µM
- TGI [30]: > 100 µM
- TGI [31]: > 100 µM
- TGI [32]: > 100 µM
- TGI [33]: > 100 µM
- TGI [35]: > 100 µM
- TGI [36]: > 100 µM
- TGI [57]: > 100 µM
- TGI [37]: > 100 µM
- TGI [38]: > 100 µM
- TGI [39]: > 100 µM
- TGI [40]: > 100 µM
- TGI [41]: > 100 µM
- TGI [42]: > 100 µM
- TGI [43]: > 100 µM
- TGI [44]: > 100 µM
- TGI [45]: > 100 µM
- TGI [46]: > 100 µM
- TGI [47]: > 100 µM
- TGI [58]: > 100 µM
- TGI [49]: > 100 µM
- TGI [50]: > 100 µM
- TGI [51]: > 100 µM

SMILES: O=[N+]([O-])c1ccc(C2=Nn3c(nnc3-c3ccc(Cl)cc3)SC2)o1
- TGI [1]: 23 µM
- TGI [2]: 31.3 µM
- TGI [3]: 48.6 µM
- TGI [4]: 27.3 µM
- TGI [59]: 23.9 µM
- TGI [5]: 18.4 µM
- TGI [6]: 7.54 µM
- TGI [7]: 4.31 µM
- TGI [8]: 4.32 µM
- TGI [9]: 12.4 µM
- TGI [52]: 31.1 µM
- TGI [60]: 39.6 µM
- TGI [10]: 23.9 µM
- TGI [11]: 5.72 µM
- TGI [12]: 15.1 µM
- TGI [13]: 5.99 µM
- TGI [14]: 6.28 µM
- TGI [53]: 33.6 µM
- TGI [15]: 24.9 µM
- TGI [16]: 8.31 µM
- TGI [61]: 18.4 µM
- TGI [54]: 11.1 µM
- TGI [17]: 17.1 µM
- TGI [18]: 4.89 µM
- TGI [55]: 27.6 µM
- TGI [19]: 16.1 µM
- TGI [20]: 12.2 µM
- TGI [21]: 14.1 µM
- TGI [22]: 14.3 µM
- TGI [23]: 7.95 µM
- TGI [24]: 12.4 µM
- TGI [62]: 4.05 µM
- TGI [63]: 10.1 µM
- TGI [64]: 4.39 µM
- TGI [65]: 16.4 µM
- TGI [25]: 8.59 µM
- TGI [26]: 37.8 µM
- TGI [27]: 18.6 µM
- TGI [28]: 17.7 µM
- TGI [29]: 2 µM
- TGI [66]: 45.1 µM
- TGI [56]: 10.6 µM
- TGI [30]: 6.66 µM
- TGI [31]: 33.8 µM
- TGI [32]: 26.3 µM
- TGI [67]: 18.4 µM
- TGI [33]: 6.37 µM
- TGI [34]: 21.6 µM
- TGI [35]: 27.9 µM
- TGI [36]: 30.2 µM
- TGI [57]: 23.5 µM
- TGI [37]: 20.5 µM
- TGI [38]: 27.1 µM
- TGI [39]: 28 µM
- TGI [40]: 25.3 µM
- TGI [41]: 34.1 µM
- TGI [42]: 23.1 µM
- TGI [43]: 29.9 µM
- TGI [44]: 32 µM
- TGI [45]: 38.6 µM
- TGI [68]: 1.16 µM
- TGI [46]: 5.85 µM
- TGI [69]: 12.9 µM
- TGI [47]: 29.7 µM
- TGI [48]: 31.5 µM
- TGI [58]: 16.9 µM
- TGI [49]: 25.9 µM
- TGI [50]: 15.4 µM
- TGI [51]: 28.7 µM
